Here are results for four molecules from US9593149B2, “Amylin and calcitonin receptor agonist” (Novo Nordisk A/S, priority 2014, dated 2017).

Values after ≈ are worked out from the molar mass of the structure shown. Numbered stars: 1 amine (or outer) side, 2 acyl side, 3 side chain; on linkers, the order of the positions; unused ones are H or OH. Peptide text beside a SMILES is read from it. * marks the point of attachment. C20 diacid = O=C(O)CCCCCCCCCCCCCCCCCCC(=O)*; C18 diacid = O=C(O)CCCCCCCCCCCCCCCCC(=O)*; γGlu = O=C(O)[C@H](CCC(=O)[*:2])N[*:1]; C12 diacid = O=C(O)CCCCCCCCCCC(=O)*

A word on the solubility: it is the concentration that dissolves in the medium under given conditions. The low end stands for a poorly soluble substance, the high end for a readily soluble substance.

Data set [1] is described as follows: Assay (IX) pK, T½ in mini-pig. Format: in vivo, Göttingen mini-pigs. Conditions: i.v. Here is the method:
Assay (IX)—pK—Determination of T½ in Mini-Pig
Pharmacokinetic (PK) studies in Göttingen mini-pigs were conducted in order to determine the T½ of the mimylin compound according to the Examples as indicated after i.v. administration.
T½ values of the amylin analogues of the invention is determined by pharmacokinetic studies in female Göttingen mini-pigs from Ellegaard Göttingen Minipigs ApS and the principles of laboratory animal care are followed.
An acclimatisation period of approximately 6-10 days was allowed before the animals entered the study. At start of the acclimatisation period the mini-pigs were about 5 to 12 months old and in the weight range of 15-35 kg. The mini-pigs had two central venous catheters inserted which were used for blood sampling.
The studies were conducted in an animal room which was illuminated to give a cycle of approximately 12 hours light and 12 hours darkness. The animals were housed individually. The animals had free access to domestic quality drinking water during the study, and no food restrictions applied for PK studies. The animals were weighed on arrival and on the days of dosing.
In the present studies the test substances were administered intravenously in approximately 5 nmol/kg dose. The animals received a single intravenous injection in one central venous catheter and blood sampling was performed from the other catheter, where possible. Each test substance was given to typically three but in some cases two or four animals.
A full plasma concentration-time profile, employing 12-16 sampling points, was obtained from each animal. In example blood samples were collected according to the following schedule:
After Intravenous Administration:
Pre-dose (0), 0.5, 1, 2, 4, 6, 8, 12, 24, 48, 72, 96, 120, 168 and 240 hours after injection. In some cases also additional blood samples up to 288 hours post injection were taken.
At each sampling time, 0.5 to 2 ml of blood was drawn from each animal. The blood samples were taken via the central venous catheter.
The 0.8 mL blood samples were collected into EDTA test tubes (8 mM EDTA). Blood samples were kept on ice for max 20 min. before centrifugation. Plasma was separated using centrifugation (i.e. at 4° C., 10 min., 2000G) and was immediately transferred to Micronic tubes on dry ice. Approximately 200 μl plasma was transferred to each Micronic tube. The plasma was stored at −20° C. until assayed. The plasma samples were assayed for the content of compound using LCMS.
The plasma concentration-time profiles were analysed by a non-compartmental pharmacokinetic analysis (NCA) using Phoenix WinNonlin 6.3 (Pharsight Inc., Mountain View, Calif., USA). NCA was performed using the individual plasma concentration-time profiles from each animal. T½ is the terminal half-life=In2/λz and was determined from λz, the first order rate constant associated with the terminal (log-linear) portion of the curve, estimated by linear regression of time vs. log concentration.
MS-Method for Amylin and Mimylin Quantification
40 μl plasma is diluted with 120 μl 66.67% EtOH+1% HCOOH and mixed. Centrifuged for 20 min. at 13000 rpm, 4° C. The supernatant is analyzed by an LC-MS method on a Sciex API 3000 and quantitated with a standard made up in plasma

Data set [2] is described as follows: Assay (IV) determination of solubility. Format: physicochemical. As to the method: Assay (IV)—Determination of Solubility
The mimylin peptide was dissolved in water at ˜500 nmol/ml and mixed 1:1 with a series of buffers (100 mM glycylglycine pH 3.0, 100 mM glycylglycine pH 4.0, 100 mM glycylglycine pH 5.0, 100 mM bistrispropane pH 6.0, 100 mM bistrispropane pH 6.5, 100 mM bistrispropane pH 7.0, 100 mM bistrispropane pH 7.5, 100 mM bistrispropane pH 8.0).

Turning to `CC(C)C[C@H](NC(=O)[C@H](CCC(=O)O)NC(=O)[C@H](Cc1cnc[nH]1)NC(=O)[C@H](CC(C)C)NC(=O)[C@H](CCC(=O)O)NC(=O)[C@H](C)NC(=O)[C@H](CO)NC(=O)[C@H](CC(C)C)NC(=O)[C@H](CCCNC(=N)N)NC(=O)CNC(=O)[C@H](CC(C)C)NC(=O)[C@@H](NC(=O)[C@H](C)NC(=O)[C@@H](NC(=O)[C@H](CO)NC(=O)[C@H](CC(C)C)NC(=O)[C@H](CCC(=O)O)NC(=O)[C@H](CO)NC(=O)[C@H](C)NC(=O)[C@H](CCC(=O)O)NC(=O)CCCCCCCCCCCCCCCCC(=O)O)[C@@H](C)O)C(C)C)C(=O)N[C@@H](C)C(=O)N[C@H](C(=O)N[C@@H](CC(C)C)C(=O)N1CCC[C@H]1C(=O)N[C@@H](CCCNC(=N)N)C(=O)N[C@H](C(=O)N[C@@H](CCC(=O)O)C(=O)N[C@H](C(=O)NCC(=O)N1CCC[C@H]1C(=O)N[C@@H](CCC(=O)O)C(=O)N[C@@H](CO)C(=O)N1CCC[C@H]1C(N)=O)[C@@H](C)O)[C@@H](C)O)[C@@H](C)O` [compound 9, [N-terminal(C18 diacid), 9V]mimylin] ({C18 diacid}-EASELSTAVLGRLSAELHELATLPRTETGPESP-NH2), the “PK mini pig iv T½” value in data set [1] came to 90 h. Besides, the Solubility entry in data set [2] (pH 3.0), in data set [2] (pH 4.0), in data set [2] (pH 5.0), in data set [2] (pH 6.0), in data set [2] (pH 6.5) and in data set [2] (pH 7.0) was “≧200 μM” each time. Further, the Solubility entry in data set [2] (pH 7.5) and in data set [2] (pH 8.0) was “≧200 μM” throughout.
Consider `CC(C)C[C@H](NC(=O)[C@H](C)NC(=O)[C@H](C)NC(=O)[C@@H](NC(=O)[C@H](CO)NC(=O)[C@H](CC(C)C)NC(=O)[C@H](CCC(=O)O)NC(=O)[C@H](CO)NC(=O)[C@H](C)NC(=O)[C@H](CCC(=O)O)NC(=O)CCCCCCCCCCCCCCCCC(=O)O)[C@@H](C)O)C(=O)NCC(=O)N[C@@H](CCCNC(=N)N)C(=O)N[C@@H](CC(C)C)C(=O)N[C@@H](CO)C(=O)N[C@@H](C)C(=O)N[C@@H](CCC(=O)O)C(=O)N[C@@H](CC(C)C)C(=O)N[C@@H](C)C(=O)N[C@@H](CCC(=O)O)C(=O)N[C@@H](CC(C)C)C(=O)N[C@@H](C)C(=O)N[C@H](C(=O)N[C@@H](CC(C)C)C(=O)N1CCC[C@H]1C(=O)N[C@@H](CCCNC(=N)N)C(=O)N[C@H](C(=O)N[C@@H](CCC(=O)O)C(=O)N[C@H](C(=O)NCC(=O)N1CCC[C@H]1C(=O)N[C@@H](CCC(=O)O)C(=O)N[C@@H](CO)C(=O)N1CCC[C@H]1C(N)=O)[C@@H](C)O)[C@@H](C)O)[C@@H](C)O` [compound 13, [N-terminal(C18 diacid), 18A]mimylin] ({C18 diacid}-EASELSTAALGRLSAELAELATLPRTETGPESP-NH2), for which the “PK mini pig iv T½” value in data set [1] was 86 h. Also, the Solubility result in data set [2] (pH 3.0), in data set [2] (pH 4.0), in data set [2] (pH 5.0), in data set [2] (pH 6.0), in data set [2] (pH 6.5) and in data set [2] (pH 7.0) was “≧200 μM” in each case. Moreover, the Solubility result in data set [2] (pH 7.5) and in data set [2] (pH 8.0) was “≧200 μM” in each case.
In the case of `CC(C)C[C@H](NC(=O)[C@H](CCCNC(=N)N)NC(=O)CNC(=O)[C@H](CC(C)C)NC(=O)[C@@H](NC(=O)[C@H](C)NC(=O)[C@@H](NC(=O)[C@H](CO)NC(=O)[C@H](CC(C)C)NC(=O)[C@H](CCC(N)=O)NC(=O)[C@H](CO)NC(=O)[C@H](C)NC(=O)CC[C@H](NC(=O)CCCCCCCCCCCCCCCCCCC(=O)O)C(=O)O)[C@@H](C)O)C(C)C)C(=O)N[C@@H](CO)C(=O)N[C@@H](CCC(N)=O)C(=O)N[C@@H](CCC(=O)O)C(=O)N[C@@H](CC(C)C)C(=O)N[C@@H](Cc1cnc[nH]1)C(=O)N[C@@H](CCC(=O)O)C(=O)N[C@@H](CC(C)C)C(=O)N[C@@H](CCC(N)=O)C(=O)N[C@H](C(=O)N[C@@H](Cc1ccc(O)cc1)C(=O)N1CCC[C@H]1C(=O)N[C@@H](CCCNC(=N)N)C(=O)N[C@H](C(=O)N[C@@H](CCC(=O)O)C(=O)N[C@H](C(=O)NCC(=O)N[C@@H](CO)C(=O)N[C@@H](CCC(N)=O)C(=O)N[C@H](C(=O)N[C@@H](Cc1ccc(O)cc1)C(N)=O)[C@@H](C)O)[C@@H](C)O)[C@@H](C)O)[C@@H](C)O` [compound 116, [N-terminal(C20 diacid-gGlu), des1, 4Q, 9V, 15Q, 21Q, 23Y, 30S, 31Q, 32T, 33Y]mimylin] ({C20 diacid-γGlu}-ASQLSTAVLGRLSQELHELQTYPRTETGSQTY-NH2), the “PK mini pig iv T½” value in data set [1] was 87 h. The Solubility result in data set [2] (pH 3.0), in data set [2] (pH 4.0), in data set [2] (pH 6.0), in data set [2] (pH 6.5), in data set [2] (pH 7.0) and in data set [2] (pH 7.5) was “≧200 μM” throughout. Further, the Solubility result in data set [2] (pH 8.0) is “≧200 μM”. Besides, the solubility at 18 h in data set [2] (pH 5.0) stood at 32 µM (≈ 129 µg/mL).
With `CC(C)C[C@H](NC(=O)[C@H](C)NC(=O)[C@H](C)NC(=O)[C@@H](NC(=O)[C@H](CO)NC(=O)[C@H](CC(C)C)NC(=O)[C@H](CCC(=O)O)NC(=O)[C@H](CO)NC(=O)[C@H](C)NC(=O)[C@H](CCC(=O)O)NC(=O)CCCCCCCCCCC(=O)O)[C@@H](C)O)C(=O)NCC(=O)N[C@@H](CCCNC(=N)N)C(=O)N[C@@H](CC(C)C)C(=O)N[C@@H](CO)C(=O)N[C@@H](C)C(=O)N[C@@H](CCC(=O)O)C(=O)N[C@@H](CC(C)C)C(=O)N[C@@H](Cc1cnc[nH]1)C(=O)N[C@@H](CCC(=O)O)C(=O)N[C@@H](CC(C)C)C(=O)N[C@@H](C)C(=O)N[C@H](C(=O)N[C@@H](CC(C)C)C(=O)N1CCC[C@H]1C(=O)N[C@@H](CCCNC(=N)N)C(=O)N[C@H](C(=O)N[C@@H](CCC(=O)O)C(=O)N[C@H](C(=O)NCC(=O)N1CCC[C@H]1C(=O)N[C@@H](CCC(=O)O)C(=O)N[C@@H](CO)C(=O)N1CCC[C@H]1C(N)=O)[C@@H](C)O)[C@@H](C)O)[C@@H](C)O` [compound 6, [N-terminal(C12 diacid)]mimylin] ({C12 diacid}-EASELSTAALGRLSAELHELATLPRTETGPESP-NH2), the “PK mini pig iv T½” value in data set [1] was 1 h. For the same molecule, the solubility at 18 h in data set [2] (bistrispropane buffer, pH 6.5) was not below 200 µM. Further, the Solubility result in data set [2] (pH 3.0), in data set [2] (pH 4.0), in data set [2] (pH 5.0), in data set [2] (pH 6.0), in data set [2] (pH 7.0) and in data set [2] (pH 7.5) was “≧200 μM” in each case. Also, in data set [2] (pH 8.0), the Solubility result is “≧200 μM”.
